Laboratory results reported in patent publication US10526389B2, “Peptides and combinations of peptides for use in immunotherapy against lung cancer, including NSCLC and other cancers” (Immatics Biotechnologies GmbH, priority 2015, dated 2020).

System: CD8+ T cells
Assay: In vitro immunogenicity of HLA-A*24 peptides (CD8+ T-cell priming with aAPCs, multimer staining)
Assay type: cell-based, human
Method: In order to obtain information regarding the immunogenicity of the TUMAPs of the present invention, the inventors performed investigations using an in vitro T-cell priming assay based on repeated stimulations of CD8+ T cells with artificial antigen presenting cells (aAPCs) loaded with peptide/MHC complexes and anti-CD28 antibody.
Generation of pMHC/anti-CD28 coated beads, T-cell stimulations and readout was performed in a highly defined in vitro system using four different pMHC molecules per stimulation condition and 8 different pMHC molecules per readout condition.
The purified co-stimulatory mouse IgG2a anti human CD28 Ab 9.3 (Jung et al., 1987) was chemically biotinylated using Sulfo-N-hydroxysuccinimidobiotin as recommended by the manufacturer (Perbio, Bonn, Germany). Beads used were 5.6 μm diameter streptavidin coated polystyrene particles (Bangs Laboratories, Illinois, USA).
800.000 beads/200 μl were coated in 96-well plates in the presence of 4×12.5 ng different biotin-pMHC, washed and 600 ng biotin anti-CD28 were added subsequently in a volume of 200 μl. Stimulations were initiated in 96-well plates by co-incubating 1×10^6 CD8+ T cells with 2×10^5 washed coated beads in 200 μl TCM supplemented with 5 ng/ml IL-12 (PromoCell) for 3 days at 37° C. Half of the medium was then exchanged by fresh TCM supplemented with 80 U/ml IL-2 and incubating was continued for 4 days at 37° C. This stimulation cycle was performed for a total of three times. For the pMHC multimer readout using 8 different pMHC molecules per condition, a two-dimensional combinatorial coding approach was used as previously described (Andersen et al., 2012) with minor modifications encompassing coupling to 5 different fluorochromes. Finally, multimeric analyses were performed by staining the cells with Live/dead near IR dye (Invitrogen, Karlsruhe, Germany), CD8-FITC antibody clone SK1 (BD, Heidelberg, Germany) and fluorescent pMHC multimers. For analysis, a BD LSRII SORP cytometer equipped with appropriate lasers and filters was used. Peptide specific cells were calculated as percentage of total CD8+ cells. Evaluation of multimeric analysis was done using the FlowJo software (Tree Star, Oregon, USA). In vitro priming of specific multimer+CD8+ lymphocytes was detected by comparing to negative control stimulations.
Exemplary flow cytometry results after TUMAP-specific multimer staining for 3 peptides of the invention are shown in FIGS. 3A-3E together with corresponding negative controls.

| Substance | in vitro immunogenicity: donors | in vitro immunogenicity: wells |
| --- | --- | --- |
| RASA2-001 (YYVDKLFNTI; listed as Homo sapiens) | ++ (20%-49% = ++) | + (<20% = +) |
| COL6A3-001 (SYLQAANAL; listed as Homo sapiens) | ++ (20%-49% = ++) | + (<20% = +) |
| IQGAP1-001 (TYAALNSKATF; listed as Homo sapiens) | + (<20% = +) | + (<20% = +) |
| KLRD-001 (QYLFPSFETF; listed as Homo sapiens) | ++++ (>= 70% = ++++) | + (<20% = +) |
| TTC13-001 (RYLEYFEKI; listed as Homo sapiens) | ++++ (>= 70% = ++++) | +++ (50%-69% = +++) |
| AHD-001 (EYSDVLAKLAF; listed as Homo sapiens) | +++ (50%-69% = +++) | + (<20% = +) |
| LAPTM5-001 (SYMEVPTYLNF; listed as Homo sapiens) | ++ (20%-49% = ++) | + (<20% = +) |
| NUP153-001 (VYFKPSLTPSGEF; listed as Homo sapiens) | + (<20% = +) | + (<20% = +) |
| XPR-001 (VYPLALYGF; listed as Homo sapiens) | ++++ (>= 70% = ++++) | ++ (20%-49% = ++) |
| RYTLHINTL (listed as Homo sapiens) [SEQ ID No. 43] | ++ (20%-49% = ++) | + (<20% = +) |
| AIFM2-001 (AYKPGALTF; listed as Homo sapiens) | ++ (20%-49% = ++) | + (<20% = +) |
| COL6A3-013 (EYQPEMLEKF; listed as Homo sapiens) | + (<20% = +) | + (<20% = +) |
| VYTSWQIPQKF (listed as Homo sapiens) [SEQ ID No. 23] | + (<20% = +) | + (<20% = +) |
| DDX5-007 (NYTNGSFGSNF; listed as Homo sapiens) | + (<20% = +) | + (<20% = +) |
| SMPDL3B-001 (IYNQIAELW; listed as Homo sapiens) | ++++ (>= 70% = ++++) | ++ (20%-49% = ++) |
| SLC-003 (RYFPTQALNF; listed as Homo sapiens) | + (<20% = +) | + (<20% = +) |
| TRPM2-001 (VYHSYLTIF; listed as Homo sapiens) | ++++ (>= 70% = ++++) | ++ (20%-49% = ++) |
| ZNF697-001 (TYLTNHLRL; listed as Homo sapiens) | ++++ (>= 70% = ++++) | ++ (20%-49% = ++) |
| SAMD9L-001 (IYQRWKDLL; listed as Homo sapiens) | +++ (50%-69% = +++) | + (<20% = +) |
| PVRL1-001 (IYNPSMGVSVL; listed as Homo sapiens) | ++ (20%-49% = ++) | + (<20% = +) |
| KDM6B-001 (RYGGSFAEL; listed as Homo sapiens) | ++ (20%-49% = ++) | + (<20% = +) |
| RYLDSLKAIVF (listed as Homo sapiens) [SEQ ID No. 28] | ++++ (>= 70% = ++++) | + (<20% = +) |
| OLFML2B-002 (YYYGNTLVEF; listed as Homo sapiens) | ++ (20%-49% = ++) | + (<20% = +) |
| G2E-002 (LYINKANIW; listed as Homo sapiens) | ++ (20%-49% = ++) | + (<20% = +) |
